Reference: patent US10584159B2, “Renilla based biosensors for monitoring biomolecule localization and trafficking in cells” (The Royal Institution for the Advancement of …, priority 2014, dated 2020)
pEC50: −log10 of the molar value.

Tests used:
Type in all cases: cell-based
hMC4R wt = target: T1, hMC4R wt (Homo sapiens, UniProt P32245); assay: BRET pharmacological chaperone rescue / sequestration assay (rGFP-CAAX), hMC4R wt-RlucII; conditions: 10 μM, 16 h
T1 construct: expressed in transfected cells; host or cells: HEK293
T1 sequence (P32245 whole entry): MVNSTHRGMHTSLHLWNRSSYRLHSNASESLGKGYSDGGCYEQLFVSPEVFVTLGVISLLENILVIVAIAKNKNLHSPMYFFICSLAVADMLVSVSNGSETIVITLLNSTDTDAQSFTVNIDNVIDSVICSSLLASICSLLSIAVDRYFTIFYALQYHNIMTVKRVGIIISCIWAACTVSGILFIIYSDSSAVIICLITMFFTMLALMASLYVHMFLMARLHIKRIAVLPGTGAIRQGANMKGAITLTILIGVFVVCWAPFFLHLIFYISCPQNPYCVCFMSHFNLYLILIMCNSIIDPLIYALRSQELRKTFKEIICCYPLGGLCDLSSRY
Method: (§1) BRET assay for evaluation of PC rescue of cell surface expression and functionality (sequestration assay). In FIGS. 12A to 18E, Hek293 cells were transiently transfected using PEI as described in this section. The DNA transfected per well of a 96-well plate is as follow: in FIGS. 12A and 12B, with 2.4 ng of hMC4R-RlucII encoding construct and an increasing quantity of rGFP-CAAX (Kras) up to 9.6 ng for FIGS. 12A and for 12B, rGFP-PB up to 9.6 ng; in FIGS. 13A to 13C with 0.6, 1.2 or 2.4 ng of hMC4R-RlucII and 4.8 ng of rGFP-CAAX (Kras); in FIG. 13D with 2.4 ng of polycistronic rGFP-CAAX(Kras)/MC4R-RlucII construct; in FIG. 13E with 1.2 ng of hV2R-RlucII and 4.8 ng of rGFP-CAAX (Kras); in FIGS. 14A to 16B with 2.4 ng of hMC4R-RlucII and 7.2 ng of rGFP-CAAX (Kras); Hek293 cells stably expressing rGFP-CAAX(Kras) were transfected with 0.6, 1.2 or 2.4 ng of hMC4R-RlucII; in FIG. 17A or 0.6, 1.2 or 2.4 ng of hV2R_Y128S-RlucII; in FIG. 17B; in FIGS. 18A and 18B with 0.6, 1.2 or 2.4 ng of hERG-RlucII and 4.8 ng of rGFP-CAAX (Kras); and in FIGS. 18C-18E with 0.6 ng of hERG-RlucII and 7.2 ng of rGFP-CAAX (Kras). […] For the BRET assay, cells were washed once with PBS and left in Tyrode's buffer. […] BRET values were determined by calculating the ratio of the light emitted by the acceptor over the light emitted by the RlucII.

hMC4R (R165Q) = target: T2, hMC4R (R165Q) (Homo sapiens, UniProt P32245, R165Q); assay: BRET pharmacological chaperone rescue / sequestration assay (rGFP-CAAX), hMC4R (R165Q)-RlucII; conditions: 10 μM, 16 h
T2 construct: expressed in transfected cells; host or cells: HEK293
T2 sequence (P32245 whole entry R165Q): as the sequence (P32245 whole entry) above, with R165Q counted along it
Method: as §1

hMC4R (P299H) = target: T3, hMC4R (P299H) (Homo sapiens, UniProt P32245, P299H); assay: BRET pharmacological chaperone rescue assay (rGFP-CAAX), hMC4R (P299H)-RlucII; conditions: 10 μM, 16 h
T3 construct: expressed in transfected cells; host or cells: HEK293
T3 sequence (P32245 whole entry P299H): as the sequence (P32245 whole entry) above, with P299H counted along it
Method: as §1

[1] = target: T4, Prostaglandin F receptor (FP) (Homo sapiens, UniProt P43088); assay: Unimolecular DAG sensor BRET, FP activation; conditions: FP-transfected HEK293SL, 1 min stimulation, read-out: EC50, DAG produced at the plasma membrane
T4 construct: expressed in transfected cells; host or cells: HEK293SL
T4 sequence (P43088 whole entry): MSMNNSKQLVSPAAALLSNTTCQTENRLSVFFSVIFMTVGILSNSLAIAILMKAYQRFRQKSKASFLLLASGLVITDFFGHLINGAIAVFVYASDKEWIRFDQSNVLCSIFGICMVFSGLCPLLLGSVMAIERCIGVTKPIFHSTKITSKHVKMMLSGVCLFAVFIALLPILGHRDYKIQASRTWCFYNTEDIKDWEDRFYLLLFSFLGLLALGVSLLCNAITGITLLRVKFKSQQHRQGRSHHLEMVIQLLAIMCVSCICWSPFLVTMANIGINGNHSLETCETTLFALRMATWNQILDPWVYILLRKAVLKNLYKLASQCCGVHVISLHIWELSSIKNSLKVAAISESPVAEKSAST
Method: (§2) Unimolecular DAG sensor. For FIGS. 22B and C, HEK293SL cells stably expressing hAt1AR (˜50 fmol/mg) were cultured in DMEM supplemented with 10% FBS and 20 μg/ml gentamycin and seeded at a density of 75,000 cells/100 mm dishes and were transiently transfected the next day with 150 ng of construct encoding for the DAG unimolecular sensor, using calcium phosphate method as described previously. 48 h post-transfection, cells were washed and Coel-400a was added to a final concentration of 5 μM and incubated 3 min. […] Data are mean±SD of triplicates of a representative experiment. […] Data are mean±S.E. of six independent experiments. For FIGS. 22D and E, Hek293SL cells were transfected with FuGENE HD, according to Roche's protocol with a ratio of 2:1 fugene:DNA. 10 ng of construct encoding the unimolecular sensor and 400 ng for the receptor (FIGS. 22D, FP and in 2E, GPR14) complemented to 1 ug with ssDNA, were transfected per well of a 6 well plate. 48 h post-transfection, cells were washed, incubated in Tyrode's buffer for 1 h. […] For FIG. 22F, cells were transfected as in FIG. 22D but with just the unimolecular DAG sensor encoding construct. 48 h post-transfection, cells were washed, incubated in Tyrode's buffer for 1 h. […] Cells were then stimulated with 5 μM m-3m3FBS or just vehicle for the indicated time. […] 48 h post-transfection, cells were washed, incubated in Tyrode's buffer for 1 h.

[2] = test system: PLC (β2, β3, γ1, γ2, δ1 isoforms); assay: Unimolecular DAG sensor BRET, direct PLC activation; conditions: 5 uM
Method: as §2

`CCC(=O)N[C@H](Cc1ccc(Cl)cc1Cl)C(=O)N1CCN(c2ccccc2CNC(C)COC)CC1` (stereo partly drawn) [DCPMP, N-((2R)-3(2,4-dichloroPhenyl)-1-(4-(2-((1-methoxypropan-2-ylamino)methyl)phenyl)piperazin-1-yl)-1-oxopropan-2-yl)propionamide] was tested, and the “PC-mediated rescue of cell surface expression” value (shortened to “PC-mediated rescue”) (hMC4R wt) was “increase in BRET signal”, the “PC-mediated rescue” value (hMC4R (R165Q)) was “increase in BRET signal” and the “PC-mediated rescue” value (hMC4R (P299H)) was “not PC-rescued”.
For `CCCCC[C@H](O)/C=C/[C@H]1[C@H](O)CC(=O)[C@@H]1C/C=C\CCCC(=O)O` [PGE2, Prostaglandin E2], the pEC50 [1] was 7.05.
With `Cc1cc(C)c(S(=O)(=O)Nc2cccc(C(F)(F)F)c2)c(C)c1` [m-3m3FBS, N-(3-Trifluoromethylphenyl)-2,4,6-trimethylbenzenesulfonamide] the “BRET response of DAG sensor” value [2] was “increase in BRET”.
